Data published in paper PMC10485906, “Development of a Dihydroquinoline–Pyrazoline GluN2C/2D-Selective Negative Allosteric Modulator of the N-Methyl-D-aspartate Receptor” (ACS Chemical Neuroscience, 2023).

Key:
Assay type in all cases: cell-based
α1-Glycine = target: T1, α1-Glycine (Rattus norvegicus, UniProt P07727); experiment: Off-target, oocytes, glycine receptor; details: 1 µM compound; 100 µM glycine
T1 construct: expressed in transfected cells; host or cells: Xenopus oocytes (cRNA injection)
T1 sequence (P07727 29-457): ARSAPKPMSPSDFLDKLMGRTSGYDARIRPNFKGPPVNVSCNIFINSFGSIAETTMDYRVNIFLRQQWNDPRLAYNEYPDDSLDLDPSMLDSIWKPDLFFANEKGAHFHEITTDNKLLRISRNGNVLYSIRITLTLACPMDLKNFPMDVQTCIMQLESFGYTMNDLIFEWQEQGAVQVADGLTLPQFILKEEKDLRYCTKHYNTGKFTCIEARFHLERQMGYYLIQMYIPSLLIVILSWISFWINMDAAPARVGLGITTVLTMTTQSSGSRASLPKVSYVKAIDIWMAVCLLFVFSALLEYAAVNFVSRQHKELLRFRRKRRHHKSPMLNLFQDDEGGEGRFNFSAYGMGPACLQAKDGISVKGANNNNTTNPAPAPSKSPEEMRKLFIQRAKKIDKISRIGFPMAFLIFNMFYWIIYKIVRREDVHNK
Description: (§1) Analysis of Off-target Actions
(§2) Compound (S)-(-)-2i was tested at 1 µM for actions at glycine-activated GluN1/GluN3A (human GluN1-F484A,T518L/GluN3A referred to a GluN1-FA,TL/GluN3A) and rat GluN1-4a/GluN3B in the presence of 0.5 µM CGP-78608. cRNA injection ratios for GluN1/GluN3 were 1:2. Compound (S)-(-)- 2i was also tested for actions at AMPA (rat GluA1, rat GluA2, human GluA3-L531Y), kainate (rat GluK2), nicotinic acetylcholine (rat α7 and α4β2, cRNA ratio 1:1), GABAA (rat α1β2γ2S, cRNA ratio 1:1:1), GABAC (rat ρ1), glycine (rat α1), and purinergic (human P2X) receptors expressed in Xenopus oocytes. cRNA encoding the receptor subunits was synthesized from linear template cDNA using the mMessage mMachine kit (Ambion). Oocytes were injected with 1-5 ng cRNA in a 50 nL volume and incubated in Barth's solution at 15°C for 2-5 days prior to recording. GluK2-expressing oocyte were incubated in 1 mg/ml (10 µM) concanavalin-A for 10 min prior to recording. The cDNAs encoding GABAC and glycine subunits were provided by Dr. D. Weiss (University of Texas Health Science Center at San Antonio). cDNAs encoding nicotinic acetylcholine receptor subunits were provided by Drs. […]
(§3) GABA. […] Responses in presence of test compound were expressed as a percent of control. […]

1b22-GABA = target: T2, 1b22-GABA (Rattus norvegicus, UniProt P18508+P62813+P63138); experiment: Off-target, oocytes, GABAA; details: 1 µM compound; 100 µM GABA
T2 construct: expressed in transfected cells; host or cells: Xenopus oocytes (cRNA injection, 1:1:1)
T2 sequence (P62813 28-455): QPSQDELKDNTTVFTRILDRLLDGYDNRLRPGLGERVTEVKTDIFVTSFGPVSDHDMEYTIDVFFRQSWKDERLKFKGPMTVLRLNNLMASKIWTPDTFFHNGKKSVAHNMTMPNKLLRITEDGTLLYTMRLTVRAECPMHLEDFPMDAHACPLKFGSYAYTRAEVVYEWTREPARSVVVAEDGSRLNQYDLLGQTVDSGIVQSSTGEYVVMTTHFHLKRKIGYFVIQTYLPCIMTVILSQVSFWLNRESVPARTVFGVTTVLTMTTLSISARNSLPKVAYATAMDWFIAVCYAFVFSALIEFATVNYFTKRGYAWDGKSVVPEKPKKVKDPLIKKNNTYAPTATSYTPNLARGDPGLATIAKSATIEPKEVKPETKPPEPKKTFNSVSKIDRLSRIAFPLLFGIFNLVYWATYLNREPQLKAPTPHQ
T2 sequence (P63138 25-474 limits assumed): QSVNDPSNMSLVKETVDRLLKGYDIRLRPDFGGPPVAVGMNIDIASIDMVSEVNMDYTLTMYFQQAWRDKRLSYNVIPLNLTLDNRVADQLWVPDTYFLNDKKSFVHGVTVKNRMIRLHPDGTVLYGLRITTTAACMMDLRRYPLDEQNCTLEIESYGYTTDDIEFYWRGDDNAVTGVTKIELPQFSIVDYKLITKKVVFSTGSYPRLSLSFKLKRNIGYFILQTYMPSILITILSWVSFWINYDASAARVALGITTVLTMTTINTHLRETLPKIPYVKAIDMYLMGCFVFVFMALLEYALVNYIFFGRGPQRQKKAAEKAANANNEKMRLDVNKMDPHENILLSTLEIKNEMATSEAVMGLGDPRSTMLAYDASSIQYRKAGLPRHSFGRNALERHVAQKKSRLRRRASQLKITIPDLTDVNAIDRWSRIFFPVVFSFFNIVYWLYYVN
T2 sequence (P18508 39-466): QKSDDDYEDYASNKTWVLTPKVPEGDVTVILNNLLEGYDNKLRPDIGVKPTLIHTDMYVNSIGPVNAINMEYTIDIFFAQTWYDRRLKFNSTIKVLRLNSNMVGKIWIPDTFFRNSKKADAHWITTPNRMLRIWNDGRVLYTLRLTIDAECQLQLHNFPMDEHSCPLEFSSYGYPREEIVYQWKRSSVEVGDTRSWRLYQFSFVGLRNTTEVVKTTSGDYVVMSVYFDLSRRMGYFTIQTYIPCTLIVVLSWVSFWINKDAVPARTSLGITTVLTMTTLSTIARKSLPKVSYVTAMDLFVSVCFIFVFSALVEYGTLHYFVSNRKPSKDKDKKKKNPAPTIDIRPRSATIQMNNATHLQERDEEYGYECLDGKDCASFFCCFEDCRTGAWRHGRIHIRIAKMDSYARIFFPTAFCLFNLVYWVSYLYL
Description: as §1, §2, §3

hGluN1-FA,TL/hGluN3A = hGluN1-FA,TL/hGluN3A (Homo sapiens, UniProt Q05586+Q8TCU5, F484A/T518L); experiment: Off-target, oocytes, GluN1/GluN3A; details: 1 µM compound; 100 µM glycine
Sequence of hGluN1-FA,TL/hGluN3A (Q8TCU5 24-1115, other chains not shown): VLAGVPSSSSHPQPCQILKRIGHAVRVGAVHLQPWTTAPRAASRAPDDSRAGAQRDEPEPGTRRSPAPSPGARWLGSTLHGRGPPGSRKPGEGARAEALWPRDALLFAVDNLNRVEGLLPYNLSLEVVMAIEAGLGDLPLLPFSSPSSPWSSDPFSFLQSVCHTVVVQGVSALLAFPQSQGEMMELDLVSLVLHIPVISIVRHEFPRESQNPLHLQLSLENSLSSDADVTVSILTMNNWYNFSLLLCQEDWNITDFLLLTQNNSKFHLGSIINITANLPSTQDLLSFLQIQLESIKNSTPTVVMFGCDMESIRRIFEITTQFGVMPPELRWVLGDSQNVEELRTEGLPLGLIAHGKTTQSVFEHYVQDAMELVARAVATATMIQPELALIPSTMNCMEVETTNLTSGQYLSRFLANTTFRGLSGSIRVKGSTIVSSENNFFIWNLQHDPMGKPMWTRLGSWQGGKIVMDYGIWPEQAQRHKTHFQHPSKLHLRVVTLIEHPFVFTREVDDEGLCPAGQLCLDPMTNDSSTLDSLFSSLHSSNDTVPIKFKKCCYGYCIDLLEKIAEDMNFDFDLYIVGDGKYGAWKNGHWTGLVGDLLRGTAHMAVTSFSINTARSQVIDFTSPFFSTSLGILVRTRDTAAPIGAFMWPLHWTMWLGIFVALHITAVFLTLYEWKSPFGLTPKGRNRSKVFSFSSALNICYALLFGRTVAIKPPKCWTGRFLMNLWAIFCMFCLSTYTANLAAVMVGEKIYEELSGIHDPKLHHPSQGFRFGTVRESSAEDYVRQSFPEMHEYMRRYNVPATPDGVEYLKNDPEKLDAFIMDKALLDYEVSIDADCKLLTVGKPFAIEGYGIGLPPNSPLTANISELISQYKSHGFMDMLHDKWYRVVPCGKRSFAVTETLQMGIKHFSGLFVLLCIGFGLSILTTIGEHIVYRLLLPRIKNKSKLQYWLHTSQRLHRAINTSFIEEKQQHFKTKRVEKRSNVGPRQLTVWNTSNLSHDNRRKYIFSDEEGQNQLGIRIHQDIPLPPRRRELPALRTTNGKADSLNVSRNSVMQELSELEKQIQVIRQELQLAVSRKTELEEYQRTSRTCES
Description: as §1, §2, §3

GluK2 = target: T3, GluK2 (Rattus norvegicus, UniProt P42260); experiment: Off-target, oocytes, GluK2; details: 1 µM compound; 100 µM glutamate
T3 construct: expressed in transfected cells; host or cells: Xenopus oocytes (cRNA injection)
T3 sequence (P42260 32-908): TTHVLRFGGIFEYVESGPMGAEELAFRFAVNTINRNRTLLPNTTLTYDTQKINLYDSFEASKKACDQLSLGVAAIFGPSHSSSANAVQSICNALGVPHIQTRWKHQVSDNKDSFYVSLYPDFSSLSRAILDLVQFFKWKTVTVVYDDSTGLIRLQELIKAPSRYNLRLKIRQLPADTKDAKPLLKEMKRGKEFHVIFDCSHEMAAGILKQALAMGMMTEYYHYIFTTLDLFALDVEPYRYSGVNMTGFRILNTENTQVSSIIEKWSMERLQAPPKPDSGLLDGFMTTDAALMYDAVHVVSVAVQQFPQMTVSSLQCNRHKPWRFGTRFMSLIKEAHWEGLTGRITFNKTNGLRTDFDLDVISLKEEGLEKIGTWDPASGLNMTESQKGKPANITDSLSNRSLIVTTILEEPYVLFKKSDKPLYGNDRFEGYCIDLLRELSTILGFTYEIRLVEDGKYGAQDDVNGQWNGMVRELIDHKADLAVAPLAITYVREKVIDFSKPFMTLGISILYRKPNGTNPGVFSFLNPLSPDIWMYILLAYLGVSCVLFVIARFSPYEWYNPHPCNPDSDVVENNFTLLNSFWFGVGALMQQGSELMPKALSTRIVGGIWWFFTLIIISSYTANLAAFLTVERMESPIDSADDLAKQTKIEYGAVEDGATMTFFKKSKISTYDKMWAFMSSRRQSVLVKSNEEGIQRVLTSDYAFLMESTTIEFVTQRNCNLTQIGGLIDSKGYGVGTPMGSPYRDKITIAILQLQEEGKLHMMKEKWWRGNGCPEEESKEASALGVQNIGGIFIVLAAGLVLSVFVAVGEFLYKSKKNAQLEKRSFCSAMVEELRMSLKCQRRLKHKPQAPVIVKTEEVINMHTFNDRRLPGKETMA
Description: as §1, §2, §3

## O=C(O)CC(F)(F)C(=O)N1N=C(c2c(-c3ccc(Cl)cc3)c3ccccc3[nH]c2=O)C[C@H]1c1ccc(Cl)cc1 [(S)-(−)-2i]
α1-Glycine
  % control α1-Glycine: 103 ± 2.4%
1b22-GABA
  % control 1b22-GABA: 85 ± 2.0%
hGluN1-FA,TL/hGluN3A
  % control hGluN1-FA,TL/hGluN3A: 95 ± 2.3%
GluK2
  % control GluK2: 100 ± 1.0%
